Experimental data from patent US9932637B2, “Genetic polymorphisms associated with cardiovascular disorders and drug response, methods of detection and uses thereof” (CELERA CORPORATION, priority 2003, dated 2018).
Values joined by “and” are separate entries in the source; they are usually repeats but may differ in a detail not shown here. Identical values can stand only once.

Tested on: patients with prior myocardial infarction (CARE study)
Assay: CARE aligned analysis (prospective and case/control design, white males): association of genotypes with pravastatin efficacy (Tables 13, 15)
Type: in vivo, human
Conditions: for Pravastatin vs placebo odds ratio, 0 rare alleles / Pravastatin vs placebo odds ratio, 1 rare allele / Pravastatin vs placebo odds ratio, 2 rare alleles / 2 rare alleles n/total (%), pravastatin patients: CARE, F MI/SD/NF MI; for Pravastatin Patients (%) / Pravastatin Patients n/total: WM
Protocol: The data presented in Table 8 based on an association of genotypes with pravastatin efficacy of the CARE samples were further analyzed and presented in Table 13. The further analysis was performed to align the data obtained from the analysis of the CARE samples, which was a prospective study, to the analysis of the WOSCOP samples, which was a case/control study. Table 13 also presents an analysis of the association of genotypes with pravastatin efficacy in the WOSCOPs samples. Relative to the analysis performed on the data presented in Table 8, there are two significant differences to determine if the SNP influenced pravastatin efficacy. Data obtained from the CARE samples were separated by study design into two groups, those in the prospective study design group and those in the case/control study design group. The original care study contained 16 protocol defined cardiovascular disease defined endpoints and 150 other phenotypes. […] The control groups used to compare the data were also divided into two groups, the “all possible” control group and the “cleaner” control group. […] Because the participants in the WOSCOPs trial were all white males, only data obtained from white males in the CARE study were analysed. Data from the “all possible” and “cleaner” controls were compared to data obtained from the cases in the prospective study design while only data from “cleaner” controls were compared to cases in the case/control study design. The data from the case/control cohorts were analysed using conditional logistic regression (as opposed to logistic regression used for the original anaylsis).
The anaylsis was refined as described for both Tables 13 and 14.

[1] = KLK14 hCV16044337, 0 Rare Alleles, CARE Case/Control, F&NF MI, All Possible controls
[2] = KLK14 hCV16044337, 0 Rare Alleles, CARE Case/Control, F&NF MI, Cleaner controls
[3] = KLK14 hCV16044337, 0 Rare Alleles, CARE Prospective, F&NF MI, All Possible controls
[4] = KLK14 hCV16044337, 0 Rare Alleles, CARE Prospective, F&NF MI, Cleaner controls
[5] = KLK14 hCV16044337, 1 Rare Allele, CARE Case/Control, F&NF MI, All Possible controls
[6] = KLK14 hCV16044337, 1 Rare Allele, CARE Case/Control, F&NF MI, Cleaner controls
[7] = KLK14 hCV16044337, 1 Rare Allele, CARE Prospective, F&NF MI, All Possible controls
[8] = KLK14 hCV16044337, 1 Rare Allele, CARE Prospective, F&NF MI, Cleaner controls
[9] = KLK14 hCV16044337, Case/Control
[10] = LPA hCV11225994, 0 Rare Alleles, CARE Case/Control, F&NF MI, Cleaner controls
[11] = LPA hCV11225994, 1 Rare Allele, CARE Case/Control, F&NF MI, Cleaner controls
[12] = MYH7 hCV25629396, 0 Rare Alleles, CARE Case/Control, F&NF MI, Cleaner controls
[13] = MYH7 hCV25629396, 0 Rare Alleles, CARE Prospective, F&NF MI, Cleaner controls
[14] = MYH7 hCV25629396, 1 Rare Allele, CARE Case/Control, F&NF MI, All Possible controls
[15] = MYH7 hCV25629396, 1 Rare Allele, CARE Case/Control, F&NF MI, Cleaner controls
[16] = MYH7 hCV25629396, 1 Rare Allele, CARE Prospective, F&NF MI, All Possible controls
[17] = MYH7 hCV25629396, 1 Rare Allele, CARE Prospective, F&NF MI, Cleaner controls
[18] = NOS3 hCV3219460, 0 Rare Alleles, CARE Case/Control, F&NF MI, All Possible controls
[19] = NOS3 hCV3219460, 0 Rare Alleles, CARE Case/Control, F&NF MI, Cleaner controls
[20] = NOS3 hCV3219460, 0 Rare Alleles, CARE Prospective, F&NF MI, All Possible controls
[21] = NOS3 hCV3219460, 0 Rare Alleles, CARE Prospective, F&NF MI, Cleaner controls
[22] = NOS3 hCV3219460, 1 Rare Allele, CARE Case/Control, F&NF MI, All Possible controls
[23] = NOS3 hCV3219460, 1 Rare Allele, CARE Case/Control, F&NF MI, Cleaner controls
[24] = NOS3 hCV3219460, 1 Rare Allele, CARE Prospective, F&NF MI, All Possible controls

CC[C@H](C)C(=O)O[C@H]1C[C@H](O)C=C2C=C[C@H](C)[C@H](CC[C@@H](O)C[C@@H](O)CC(=O)O)[C@H]21 [pravastatin]
Pravastatin vs placebo odds ratio, 0 rare alleles (KDR hCV22271999, Case/Control): 0.67 and 0.59
Pravastatin vs placebo odds ratio, 1 rare allele (KDR hCV22271999, Case/Control): 1.69
Pravastatin vs placebo odds ratio, 2 rare alleles (KDR hCV22271999, Case/Control): 0.38 and 0.31
2 rare alleles n/total (%), pravastatin patients (KDR hCV22271999, Prospective): (9.1%)
Pravastatin vs placebo odds ratio, 0 rare alleles (KDR hCV22271999, Prospective): 0.61
Pravastatin vs placebo odds ratio, 1 rare allele (KDR hCV22271999, Prospective): 1.41
Pravastatin vs placebo odds ratio, 2 rare alleles (KDR hCV22271999, Prospective): 0.27
Pravastatin Patients (%) [1]: (10.9%)
Pravastatin Patients n/total [1]: 60/548
Pravastatin Patients (%) [2]: (16.4%)
Pravastatin Patients n/total [2]: 60/365
Pravastatin Patients (%) [3]: (10.7%)
Pravastatin Patients n/total [3]: 60/560
Pravastatin Patients (%) [4]: (16.0%)
Pravastatin Patients n/total [4]: 60/374
Pravastatin Patients (%) [5]: (10.4%)
Pravastatin Patients n/total [5]: 57/547
Pravastatin Patients (%) [6]: (14.3%)
Pravastatin Patients n/total [6]: 57/399
Pravastatin Patients (%) [7]: (10.3%)
Pravastatin Patients n/total [7]: 57/556
Pravastatin Patients (%) [8]: (14.1%)
Pravastatin Patients n/total [8]: 57/404
Pravastatin vs placebo odds ratio, 0 rare alleles [9]: 1.02 and 0.98
Pravastatin vs placebo odds ratio, 1 rare allele [9]: 0.85 and 0.74
Pravastatin vs placebo odds ratio, 2 rare alleles [9]: 0.23
Pravastatin vs placebo odds ratio, 0 rare alleles (KLK14 hCV16044337, Prospective): 1.04 and 0.97
Pravastatin vs placebo odds ratio, 1 rare allele (KLK14 hCV16044337, Prospective): 0.86 and 0.73
Pravastatin vs placebo odds ratio, 2 rare alleles (KLK14 hCV16044337, Prospective): 0.22 and 0.23
Pravastatin Patients (%) [10]: (14.0%)
Pravastatin Patients n/total [10]: 88/627
Pravastatin Patients (%) [11]: (15.4%)
Pravastatin Patients n/total [11]: 29/188
2 Rare Alleles (%), Pravastatin Patients (LPA hCV11225994, CARE Case/Control, F&NF MI): (41.2%)
2 rare alleles n/total (%), pravastatin patients (MICA hCV25474101, Case/Control): (37.5%)
Pravastatin vs placebo odds ratio, 0 rare alleles (MICA hCV25474101, Case/Control): 0.67
Pravastatin vs placebo odds ratio, 1 rare allele (MICA hCV25474101, Case/Control): 0.72
Pravastatin vs placebo odds ratio, 2 rare alleles (MICA hCV25474101, Case/Control): 6.64
Pravastatin Patients (%) (MYH7 hCV25629396, 0 Rare Alleles, CARE Case/Control, F&NF MI, All Possible controls): (10.0%)
Pravastatin Patients (%) [12]: (14.5%)
Pravastatin Patients n/total [12]: 118/815
Pravastatin Patients (%) (MYH7 hCV25629396, 0 Rare Alleles, CARE Prospective, F&NF MI, All Possible controls): (9.8%)
Pravastatin Patients (%) [13]: (14.2%)
Pravastatin Patients n/total [13]: 118/829
Pravastatin Patients (%) [14]: (29.0%)
Pravastatin Patients n/total [14]: 9/31
Pravastatin Patients (%) [15]: (40.9%)
Pravastatin Patients n/total [15]: 9/22
Pravastatin Patients (%) [16]: (29.0%)
Pravastatin Patients n/total [16]: 9/31
Pravastatin Patients (%) [17]: (40.9%)
Pravastatin Patients n/total [17]: 9/22
Pravastatin vs placebo odds ratio, 0 rare alleles (MYH7 hCV25629396, Case/Control): 0.75 and 0.67
Pravastatin vs placebo odds ratio, 1 rare allele (MYH7 hCV25629396, Case/Control): 12.05 and 11.70
Pravastatin vs placebo odds ratio, 0 rare alleles (MYH7 hCV25629396, Prospective): 0.75 and 0.66
Pravastatin vs placebo odds ratio, 1 rare allele (MYH7 hCV25629396, Prospective): 13.41 and 14.00
Pravastatin Patients (%) [18]: (10.0%)
Pravastatin Patients n/total [18]: 53/529
Pravastatin Patients (%) [19]: (14.8%)
Pravastatin Patients n/total [19]: 53/359
Pravastatin Patients (%) [20]: (9.8%)
Pravastatin Patients n/total [20]: 53/539
Pravastatin Patients (%) [21]: (14.4%)
Pravastatin Patients n/total [21]: 53/368
Pravastatin Patients (%) [22]: (12.3%)
Pravastatin Patients n/total [22]: 64/520
Pravastatin Patients (%) [23]: (17.6%)
Pravastatin Patients n/total [23]: 64/363
Pravastatin Patients (%) [24]: (12.1%)
Pravastatin Patients n/total [24]: 64/527
Pravastatin Patients (%) (NOS3 hCV3219460, 1 Rare Allele, CARE Prospective, F&NF MI, Cleaner controls): (17.5%)
